Measurements reported in patent US11926845B2, “Cell culture method and automatic cell culture apparatus” (Hitachi, Ltd., priority 2020, dated 2024).

Assays:
[1] = tested on: human iPS cells (201B7 strain); test: hCG secretion into culture supernatant (ELISA) of 201B7 strain cultured on coated planar mesh; format: cell-based
Protocol: In the present example, the human iPS cells (201B7 strain) were cultured by using a culture substrate in which the planar mesh made of nickel was coated with parylene or Au, and an effect of the ROCK inhibitor on cell differentiation was investigated.
A cell culture substrate was prepared in the same procedure as in the first example. The i-Matrix (Nippi Inc.) adjusted to a concentration of 50 ng/μl as a scaffold material of cells was added so as to cover the mesh and the mixture was treated at 4° C. for 3 days. Thereafter, after i-Matrix was removed, and the washing was performed with an Essential 8 medium (GIBCO Co.), the human iPS cells (201B7 strain) was adjusted in the Essential 8 medium so as to be 1×10^5/ml, and an iPS cell suspension containing 10 μM of the ROCK inhibitor (Y-27632, Wako Pure Chemical Co.) was added on the mesh in the same manner as the scaffold material, and the cells were incubated at 37° C. in the cell culture apparatus adjusted to the CO2 concentration of 5%.
After 24 hours from seeding, a total amount of iPS cell suspension was removed and replaced with a new Essential 8 medium, so that the ROCK inhibitor was completely removed once. Then, every 4 days, half the amount of culture supernatant was recovered, and the amount of culture supernatant was maintained by adding a new Essential 8 medium in an amount equal to a removed amount. The ROCK inhibitor (Y-27632, Wako Pure Chemical Co.) was added to a part of the medium of the cell culture substrate on which the 201B7 strain is seeded from Day 9 of culturing or Day 13 of the culturing so that the final concentration of the ROCK inhibitor was 20 μM, and the culturing was performed for 3 weeks.
(§1) A secretion amount of hCG, which is one of trophoblast differentiation markers, was quantified by using the recovered culture supernatant. For the quantification, a value of OD450 was detected with an absorbance plate reader (Corona Electric Co. Ltd.) by using a Human hCG ELISA Kit (Abcam Co.). Details of an ELISA reaction and a measurement method followed a manual of a kit.

253G1 strain = test: hCG secretion into culture supernatant (ELISA) of 253G1 strain cultured on coated planar mesh; format: cell-based, human; conditions: for secretion amount of hCG, increase as compared with the case where the ROCK inhibitor was not added / secretion amount of hCG, course after the increase: 253G1 strain; for secretion amount of hCG, course after the increase: after Day 17
Protocol: Preparation of the cell culture substrate and seeding of the iPS cells were carried out in the same manner as in the second example. After 24 hours from seeding, a total amount of iPS cell suspension was removed and replaced with a new Essential 8 medium, so that the ROCK inhibitor was completely removed once. Then, every 4 days, half the amount of the culture supernatant was recovered, and the amount of culture supernatant was maintained by adding a new Essential 8 medium in an amount equal to a removed amount. The ROCK inhibitor (Y-27632, Wako Pure Chemical Co.) was added to a part of the medium of the cell culture substrate on which the 253G1 strain is seeded from Day 9 of culturing or Day 13 of the culturing so that a final concentration was 20 μM, and the culturing was performed for 3 weeks.
as §1, with “The secretion” for “A secretion”, “quantification, the” for “quantification, a”, “detected by” for “detected with”, “Electric Co.)” for “Electric Co. Ltd.)”

secretion amount of hCG, increase as compared with the case where the ROCK inhibitor was not added (253G1 strain; mesh coated with Au, 20 μM added from Day 9 of culturing, on Day 17): about twice | secretion amount of hCG, increase as compared with the case where the ROCK inhibitor was not added (253G1 strain; mesh coated with Au, 20 μM added from Day 9 of culturing, on Day 21): about three times | secretion amount of hCG, increase as compared with the case where the ROCK inhibitor was not added (253G1 strain; mesh coated with Au, 20 μM added from Day 13 of culturing, on Day 17): five times | secretion amount of hCG, increase as compared with the case where the ROCK inhibitor was not added (253G1 strain; mesh coated with parylene, 20 μM added from Day 9 of culturing, on Day 17): about ten times | secretion amount of hCG, increase as compared with the case where the ROCK inhibitor was not added (253G1 strain; mesh coated with parylene, 20 μM added from Day 13 of culturing, on Day 21): three times
Compound: C[C@@H](N)[C@H]1CC[C@H](C(=O)Nc2ccncc2)CC1 [ROCK inhibitor, Y-27632]
differentiation into trophoblast ([1]; 201B7 strain on planar mesh coated with parylene or Au, re-addition of the ROCK inhibitor): promoted | secretion amount of hCG, increase as compared with the case where the ROCK inhibitor was not added ([1]; 201B7 strain, mesh coated with Au, 20 μM added from Day 9 of culturing, on Day 17): about twice | secretion amount of hCG, increase as compared with the case where the ROCK inhibitor was not added ([1]; 201B7 strain, mesh coated with Au, 20 μM added from Day 9 of culturing, on Day 21): four times | secretion amount of hCG, course after the increase ([1]; 201B7 strain, mesh coated with Au, 20 μM added from Day 13 of culturing, after Day 17): the secretion amount was maintained thereafter | secretion amount of hCG, increase as compared with the case where the ROCK inhibitor was not added ([1]; 201B7 strain, mesh coated with Au, 20 μM added from Day 13 of culturing, on Day 17): about three times | secretion amount of hCG, course after the increase ([1]; 201B7 strain, mesh coated with parylene, 20 μM added from Day 9 of culturing, after Day 13): the secretion amount was maintained thereafter | secretion amount of hCG, increase as compared with a case where the ROCK inhibitor was not added ([1]; 201B7 strain, mesh coated with parylene, 20 μM added from Day 9 of culturing, on Day 13): about twice | secretion amount of hCG, increase as compared with the case where the ROCK inhibitor was not added ([1]; 201B7 strain, mesh coated with parylene, 20 μM added from Day 13 of culturing, on Day 17): about twice | secretion amount of hCG, increase as compared with the case where the ROCK inhibitor was not added ([1]; 201B7 strain, mesh coated with parylene, 20 μM added from Day 13 of culturing, on Day 21): about three times | differentiation into trophoblast cells (253G1 strain; 253G1 strain on planar mesh coated with parylene or Au, addition of the ROCK inhibitor): promoted | secretion amount of hCG, course after the increase (253G1 strain; mesh coated with Au, 20 μM added from Day 13 of culturing): the secretion amount was maintained thereafter | secretion amount of hCG, course after the increase (253G1 strain; mesh coated with parylene, 20 μM added from Day 9 of culturing): the secretion amount was maintained thereafter
